Here are results for eight compounds from paper PMC3973950, “Synthesis of 5-arylidine amino-1,3,4-thiadiazol-2-[(N-substituted benzyol)]sulphonamides endowed with potent antioxidants and anticancer activity induces growth inhibition in HEK293, BT474 and NCI-H226 cells” (Medicinal Chemistry Research, 2013).

Data set [1] in a line: In vitro cytotoxicity by MTT assay, HEK 293. Format: cell-based, human. Conditions: human, HEK 293 cells, read-out: % cytotoxicity (100 − % cell survival) of HEK 293 cell line. The method in brief: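 Cells grown in RPMI-1640 with 10 % […] newborn calf serum were seeded at about 10,000 cells per well and left 24 h to form a partial monolayer. Compounds were then added for 72 h at 37 °C, 5 % CO2, followed by MTT for 4 h, formazan solubilized in propanol and absorbance read at 490 nm.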
(Tetrazolium assays rely on reduction of a dye to a coloured formazan, in cell work by metabolically active cells.)

Data set [2] deals with HEK 293, M468 and NCI-H226. As to the kind of experiment: In vitro cytotoxicity by MTT assay, summary over all cell lines. Conditions: on all cell lines. The class given is cell-based. As for the experimental part:
The cancer cell line cultures of HEK 293 ([…]), BT474 (breast cancer cell line) and NCI-H226 (lung cancer) were obtained from Pasteur Institute of India, Coonoor, India, and were cultured in RPMI-1640 and 10 % heat-[…] New born calf serum with antibiotics [penicillin ([…]), streptomycin (100 μg/mL) and amphotericin B (25 μg/mL)]. The cells were maintained at 37 °C in a humidified atmosphere with 5 % CO2 and were subcultured twice a week.
The monolayer cell culture (100 μL) was trypsinized, and the cell count was adjusted to […] using medium containing 10 % new born calf serum. To each well of the 96-well microtitre plate, the diluted cell suspension (approximately 10,000 cells) (0.1 mL) was added and kept for 24 h in incubator at 37 °C in 5 % CO2 atmosphere for cell monolayer formation. After 24 h, when a partial monolayer was formed at the bottom of the well, the supernatant was flicked off, the monolayer was washed once, and different drugs, i.e. synthesized compounds (100 μL), were added to the cells in microtitre plates. The plates were then incubated at 37 °C for 3 days in 5 % CO2 atmosphere, and microscopic examination was carried out and observations recorded every 24 h. After 72 h, the sample solution in the wells was flicked off; MTT dye ([…]) was added to each well; plates were gently shaken and incubated for 4 h at 37 °C in 5 % CO2 incubator. The supernatant was removed and propanol (50 μL) was added; the plates were gently shaken to solubilize the formed formazan. The absorbance was measured using a microplate reader at a wavelength of 490 nm (Edmondson et al., [1988]; Prasad et al., [2005]; Chiruvella et al., [2008]; Chang et al., [2007]).

Molecules are shown by their SMILES.

Take `COc1ccc(C=Nc2nnc(S(=O)(=O)NC(=O)c3ccccc3)s2)cc1` [Compound 9d, N-({5-[(4-Methoxybenzylidene)amino]-1,3,4-thiadiazol-2-yl}sulfonyl)benzamide]: in data set [1], the cytotoxicity at 72 h, 0.005 µM is 30.6%; the cytotoxicity at 72 h, 0.015 µM was 32.6%; the cytotoxicity at 72 h, 0.045 µM was determined as 33.9%; the cytotoxicity at 72 h, 0.13 µM was found to be 34.8%. Moreover, in data set [1], the cytotoxicity at 72 h, 0.41 µM is 34.8%; the cytotoxicity at 72 h, 1.23 µM is 35.5%; the cytotoxicity at 72 h, 3.7 µM was 35.8%; the cytotoxicity at 72 h, 11.11 µM was determined as 36.3%. In data set [1], the cytotoxicity at 72 h, 33.33 µM turned out to be 38.2% and the cytotoxicity at 72 h, 100 µM amounted to 38.9%.
Regarding `O=C(NS(=O)(=O)c1nnc(N=Cc2ccccc2)s1)c1ccccc1` [Compound 9a, N-{[5-(Benzylidenamino)-1,3,4-thiadiazol-2-yl]sulphonyl} benzamide], in data set [1], the cytotoxicity at 72 h, 0.005 µM was 37.4%; the cytotoxicity at 72 h, 0.015 µM turned out to be 38.2%; the cytotoxicity at 72 h, 0.045 µM turned out to be 39.8%; the cytotoxicity at 72 h, 0.13 µM is 40.7%. In data set [1], the cytotoxicity at 72 h, 0.41 µM came to 42.4%; the cytotoxicity at 72 h, 1.23 µM amounted to 43.1%; the cytotoxicity at 72 h, 3.7 µM was determined as 44.2%; the cytotoxicity at 72 h, 11.11 µM was determined as 45.6%. In data set [1], the cytotoxicity at 72 h, 33.33 µM came to 46.2% and the cytotoxicity at 72 h, 100 µM stood at 50.6%.
As for `COc1ccccc1C=Nc1nnc(S(=O)(=O)NC(=O)c2ccccc2)s1` [Compound 9c, N-({5-[(2-Methoxybenzylidene)amino]-1,3,4-thiadiazol-2-yl}sulfonyl)benzamide], in data set [1], the cytotoxicity at 72 h, 0.005 µM was found to be 36.8%; the cytotoxicity at 72 h, 0.015 µM came to 38.2%; the cytotoxicity at 72 h, 0.045 µM came out at 40.3%; the cytotoxicity at 72 h, 0.13 µM came out at 42.1%. Further, in data set [1], the cytotoxicity at 72 h, 0.41 µM is 42.9%; the cytotoxicity at 72 h, 1.23 µM is 43.1%; the cytotoxicity at 72 h, 3.7 µM is 44.3%; the cytotoxicity at 72 h, 11.11 µM was found to be 45.9%. Also, in data set [1], the cytotoxicity at 72 h, 33.33 µM stood at 47.4% and the cytotoxicity at 72 h, 100 µM was 52.3%. For the same compound, the “cytotoxic activity compared with all synthesized compounds” value in data set [2] is “more potent”.
In the case of `CN(C)c1ccc(C=Nc2nnc(S(=O)(=O)NC(=O)c3ccccc3)s2)cc1` [Compound 9h, N-[(5-{[4-(Dimethylamino)benzylidene]amino}-1,3,4-thiadiazol-2-yl)sulfonyl]benzamide], in data set [1], the cytotoxicity at 72 h, 0.005 µM turned out to be 32%; the cytotoxicity at 72 h, 0.015 µM came to 32.9%; the cytotoxicity at 72 h, 0.045 µM was found to be 34.5%; the cytotoxicity at 72 h, 0.13 µM was found to be 34.8%. Further, in data set [1], the cytotoxicity at 72 h, 0.41 µM was found to be 35.1%; the cytotoxicity at 72 h, 1.23 µM was found to be 35.7%; the cytotoxicity at 72 h, 3.7 µM was determined as 35.7%; the cytotoxicity at 72 h, 11.11 µM was 36.2%. In data set [1], the cytotoxicity at 72 h, 33.33 µM was 36.9% and the cytotoxicity at 72 h, 100 µM was determined as 37.6%.
Turning to `COc1cc(C=Nc2nnc(S(=O)(=O)NC(=O)c3ccccc3)s2)ccc1O` [Compound 9g, N-({5-[(4-Hydroxy-3-methoxybenzylidene)amino]-1,3,4-thiadiazol-2-yl}sulfonyl)benzamide], in data set [1], the cytotoxicity at 72 h, 0.005 µM was found to be 25.4%; the cytotoxicity at 72 h, 0.015 µM was 27.6%; the cytotoxicity at 72 h, 0.045 µM was 28.5%; the cytotoxicity at 72 h, 0.13 µM is 30.3%. Besides, in data set [1], the cytotoxicity at 72 h, 0.41 µM was 31.1%; the cytotoxicity at 72 h, 1.23 µM is 32.1%; the cytotoxicity at 72 h, 3.7 µM worked out at 32.8%; the cytotoxicity at 72 h, 11.11 µM is 33.5%. Besides, in data set [1], the cytotoxicity at 72 h, 33.33 µM amounted to 34.1% and the cytotoxicity at 72 h, 100 µM was found to be 38.6%. In addition, the “cytotoxic activity compared with all synthesized compounds” value in data set [2] was “less activity”.
For the compound `O=C(NS(=O)(=O)c1nnc(N=Cc2ccc(O)cc2)s1)c1ccccc1` [Compound 9e, N-({5-[(4-Hydroxybenzylidene)amino]-1,3,4-thiadiazol-2-yl}sulfonyl)benzamide], in data set [1], the cytotoxicity at 72 h, 0.005 µM came out at 25.3%; the cytotoxicity at 72 h, 0.015 µM turned out to be 26.7%; the cytotoxicity at 72 h, 0.045 µM worked out at 26.6%; the cytotoxicity at 72 h, 0.13 µM is 28.3%. Moreover, in data set [1], the cytotoxicity at 72 h, 0.41 µM was 29.8%; the cytotoxicity at 72 h, 1.23 µM came out at 30.3%; the cytotoxicity at 72 h, 3.7 µM turned out to be 31.4%; the cytotoxicity at 72 h, 11.11 µM worked out at 34.2%. In data set [1], the cytotoxicity at 72 h, 33.33 µM is 37.6% and the cytotoxicity at 72 h, 100 µM is 39.6%.
On to `O=C(NS(=O)(=O)c1nnc(N=Cc2ccccc2O)s1)c1ccccc1` [Compound 9f, N-({5-[(2-Hydroxybenzylidene)amino]-1,3,4-thiadiazol-2-yl}sulfonyl)benzamide], for which, in data set [1], the cytotoxicity at 72 h, 0.005 µM amounted to 32.5%; the cytotoxicity at 72 h, 0.015 µM was 33.1%; the cytotoxicity at 72 h, 0.045 µM was found to be 34%; the cytotoxicity at 72 h, 0.13 µM was found to be 35.1%. Also, in data set [1], the cytotoxicity at 72 h, 0.41 µM stood at 36.4%; the cytotoxicity at 72 h, 1.23 µM is 37.1%; the cytotoxicity at 72 h, 3.7 µM turned out to be 37.4%; the cytotoxicity at 72 h, 11.11 µM turned out to be 37.9%. Also, in data set [1], the cytotoxicity at 72 h, 33.33 µM stood at 39.8% and the cytotoxicity at 72 h, 100 µM is 42.8%.
Consider `O=C(NS(=O)(=O)c1nnc(N=Cc2ccc(Cl)cc2)s1)c1ccccc1` [Compound 9b, N-({5-[(4-Chlorobenzylidene)amino]-1,3,4-thiadiazol-2-yl}sulfonyl)benzamide], for which, in data set [1], the cytotoxicity at 72 h, 0.005 µM came out at 33.2%; the cytotoxicity at 72 h, 0.015 µM was 34.1%; the cytotoxicity at 72 h, 0.045 µM was determined as 34.6%; the cytotoxicity at 72 h, 0.13 µM was determined as 36.6%. Besides, in data set [1], the cytotoxicity at 72 h, 0.41 µM came to 37.7%; the cytotoxicity at 72 h, 1.23 µM amounted to 38%; the cytotoxicity at 72 h, 3.7 µM worked out at 38.2%; the cytotoxicity at 72 h, 11.11 µM came out at 38.6%. Further, in data set [1], the cytotoxicity at 72 h, 33.33 µM is 38.9% and the cytotoxicity at 72 h, 100 µM is 40.7%. The “cytotoxic activity compared with all synthesized compounds” value in data set [2] is on record as “more potent”.
